Assays:
[1] = test system: ovarian cancer cell lines and a pancreatic cancer cell line; experiment: Cell Titer Glo viability with YM155, parthenolide or both for 48 hours; conditions: single agents at levels giving about half inhibition, and their combination
OVCAR8 cells [2] = experiment: QPCR follow-up of YM155-treated versus DMSO-treated OVCAR8 cells; type: cell-based, human; conditions: OVCAR8, 6 hours
Description: (§1) Using Illumina gene expression analysis and QPCR followup, YM155-treated cells were compared with DMSO vehicle treated cells. […] DDIT3 (a.k.a., CHOP) is a proapoptotic protein whose induction is a hallmark of ER stress induced apoptosis (Wang et al., 2010). […] HSP72 has strong cytoprotective effect by functioning as a molecular chaperone in cytosolic protein folding, transport, and degradation (Morimoto et al., 1997; Tavaria et al., 1996), and as an inhibitor of cellular apoptosis (Gamido et al., 2003; Samali and Orrenius, 1998). In addition, HSP72 interacts with ER stress sensor protein IRE1a thereby enhancing IREla-XBP1 signaling at the ER and promoting adaptation to ER stress and cell survival (Gupta et al., 2010). HSP72 is normally expressed at low levels, and is induced upon exposure to environmental stress to exert its cytoprotective effect. However, in cancer, HSP72 is constitutively expressed in many cancer cell lines and biopsies, and its expression correlates with poor prognosis (Gabai et al., 2009). HSP72 provides a selective advantage to cancer cells by suppressing default senescence via p53-dependent and p53-independent pathways (Yaglom et al., 2007). Thus, YM155 acutely suppresses HSPA1A and HSPA1B, indicating a novel mechanism which may contribute directly to the anti-cancer effect of YM155.

OVCAR8 cells [3] = experiment: Illumina gene expression analysis of YM155-treated versus DMSO-treated OVCAR8 cells; type: cell-based, human; conditions: OVCAR8, 6 hours
Procedure: as §1, with “To characterize the early targets of YM155 in cancer cells, the ovarian cancer cell line OVCAR8 was treated acutely for 6 hours with YM155 (10 nM). Using” for “Using”

OVCAR8 cells [4] = experiment: High-throughput screen of Prestwick Chemical Library with or without YM155; conditions: Homo sapiens, OVCAR-8, read-out: Cell viability
Procedure: High-throughput screen for drugs that synergize with YM155. […] Digitonin (0.8 mg/ml) was used as a positive control for ˜100% cell death. […] The relative synergy for each drug was then calculated by subtracting measured cell survival of combinatorial treatment from the calculated c value.
To identify additional small molecules that synergize with YM155, a small library screen was performed.

OVCAR8 cells [5] = experiment: Cell viability of OVCAR8 cells after 48 hours with drug (dose response); type: cell-based; conditions: Homo sapiens, OVCAR-8; 48-hr treatment of OVCAR8 cells
Procedure: (§2) FIG. 10. Drug and miRNA mimic effects on ovarian cancer cell viability (A-C) and proliferation (D). OVCAR8 cancer cells were incubated for 48 hours in the presence of YM155 (A) or everolimus (B) and assayed for cell viability. C. Three independent PTEN/DICER DKO mouse serous carcinoma cell lines were transfected with miRNA control (miR-Ctrl) or miR-34c mimics and assayed for cell viability 48 hours later. D. OVCAR8 cells were infected with lentivirus expressing miR-Ctrl or miR-34c and assayed for cell number. *, P<0.05; **, P<0.005; ***, P<0.0005
FIG. 17. Dose response curve of YM155 after 48-hr treatment of OVCAR8 cells.
Well-known as an apoptosis inhibitor, survivin has been identified to contribute to nearly every aspect of cancer from onset to outcome (Altieri, 2008; Martinelli et al., 2006). Nearly all serous, endometrioid, and poorly-differentiated ovarian cancers express surviving (Cohen et al., 2003), the levels of survivin correlate with poor prognostic parameters (Cohen et al., 2003), high levels of survivin are associated with taxol/platinum resistance (Zaffaroni et al., 2002), and women with PTEN-negative/survivin-positive ovarian cancers have the worst prognosis (Sui et al., 2006). […] Based on these findings, the inventors treated mouse serous cancer cell lines and the human serous cancer line OVCAR8 with YM155 or everolimus, an inhibitor of mTOR (FIG. 5A, B). […]

[6] = test system: mouse serous cancer cell lines and the human serous cancer line OVCAR8; experiment: Treatment of serous cancer cell lines with YM155 or everolimus; type: cell-based
Description: Well-known as an apoptosis inhibitor, survivin has been identified to contribute to nearly every aspect of cancer from onset to outcome (Altieri, 2008; Martinelli et al., 2006). Nearly all serous, endometrioid, and poorly-differentiated ovarian cancers express surviving (Cohen et al., 2003), the levels of survivin correlate with poor prognostic parameters (Cohen et al., 2003), high levels of survivin are associated with taxol/platinum resistance (Zaffaroni et al., 2002), and women with PTEN-negative/survivin-positive ovarian cancers have the worst prognosis (Sui et al., 2006). […] Based on these findings, the inventors treated mouse serous cancer cell lines and the human serous cancer line OVCAR8 with YM155 or everolimus, an inhibitor of mTOR (FIG. 5A, B). […] These findings indicate that YM155 and everolimus can be used to identify small molecules that synergize with the compounds to eradicate high-grade serous carcinomas in women.

[7] = test system: Dicer-Pten DKO mouse cancer cell lines; experiment: Cell viability (CellTiter-Glo) of Dicer-Pten DKO mouse cancer cell lines after miRNA mimic transfection or everolimus; type: cell-based; conditions: for sensitivity of cells (anti-proliferative, secondary to G1 arrest, and pro-apoptotic effects): Dicer/Pten double null line from primary mouse serous cancer, everolimus 0.8 uM, 48 h, alone and in combination; for cell viability and proliferation after miR-34c mimic delivery: mouse and human serous cancer cell lines (three PTEN/DICER DKO lines, OVCAR8)
Procedure: FIG. 4. Activation of the PI3K pathway in Dicer/Pten DKO mice and effects of mir34c and everolimus on a Dicer/Pten DKO cell line. A, Western blot analysis of DKO fallopian tube tumors showing activation of AKT signaling compared with control fallopian tubes. B, A Dicer/Pten DKO cell line was transfected with miR-34c mimic or a control (miR-Ctrl), treated with everolimus (0.8 uM) or without (DMSO), and examined 48 h later for the effects on cell viability.
To functionally evaluate the roles of miR34c and the mTOR inhibitor everolimus in serous cancers, the inventors first generated 32 cell lines from primary cancers (5 lines), metastatic lesions (11 lines), and ascites fluid (16 lines) of independent Dicer/Pten DKO mice. The effects were analyzed of everolimus and miR-34c mimic alone and in combination on a confirmed Dicer/Pten double null cell line derived from a primary mouse serous cancer. […] Based on the studies, there are the following considerations: 1) MiR-34c and additional miRNAs function to suppress the development of high grade serous carcinomas and the […], and/or 2) Simultaneous pharmacological targeting of mTOR and pathways downstream of miR-34c and other miRNAs leads to therapies to eradicate high-grade serous carcinomas.
Dicer-Pten DKO mouse cancer cell line DKO-1 were transfected with various miRNA mimics including miR-31, miR-100, let-7b, miR-34c or a miRNA control (miR-Ctrl). Cell viability was measured by ATP quantitation-based CellTiter-Glo assay 48 hours after transfection.
(§3) FIG. 13A is a cell viability assay. Dicer-Pten DKO mouse cancer cell lines were transfected with miR-34c followed by cell viability assay in 48 hours using CellTiter-Glo assay. FIG. 13B is cell cycle analysis. Forty-eight hours after miR-34c transfection, Dicer-Pten DKO mouse cancer cell lines were fixed in cold 70% ethanol and stained with PI. Cell cycle profiles were determined by flow cytometry and analyzed by flowjo.

[8] = test system: Dicer-Pten DKO mouse cancer cell line; experiment: QPCR analysis of miR-34c downstream genes after miR-34c mimic transfection; type: cell-based
Description: In FIG. 14, miR-34c inhibits cyclinE-CDK2 complex. Analysis of some of miR-34c downstream genes is shown. QPCR analysis showing relative quantity of CDK2 (A), CCNE2 (B) and CDKN1C(C) after miR-34c mimic transfection in Dicer-Pten DKO mouse cancer cell line.

[9] = test system: PTEN/DICER DKO primary serous cancer cell lines; experiment: Microarray analysis (QPCR follow-up) of gene expression after miR-34c mimic transfection; type: cell-based, mouse
Procedure: To characterize the roles of miR-34c in regulating major cancer and cell cycle pathways, mimics were transfected into three independent PTEN/DICER DKO primary serous cancer cell lines and the human OVCAR8 serous cancer cell line and assayed for cell viability and cell proliferation (FIG. 5C, D) and microarray analysis was performed, with followup QPCR confirmation. […] The effects were examined of miR-34c on major pathway genes that contain miR-34c binding sites in their 3′UTR sequences as well as pathways in which these proteins lie. […] These findings are especially relevant to cancer treatment since mutations in TOP2A are associated with drug resistance, and TOP2A is the target for several chemotherapeutic agents.

[10] = test system: Dicer-Pten DKO mouse cancer cell lines; experiment: Cell cycle analysis (PI, flow cytometry) after miR-34c transfection; type: cell-based; conditions: 48 hours after miR-34c transfection
Procedure: as §3

OVCAR8 = experiment: Lentiviral expression of miR-34c in OVCAR8: proliferation (CellTiter-Glo) and cell cycle (PI flow cytometry); type: cell-based, human
Procedure: as §2
In FIG. 16A, OVCAR8 infected with miR-34c or control lentivirus were seeded onto 96-well plates for proliferation assay measured by CellTiter-Glo assay. In FIG. 16B, five days after miR-34c or control lentivirus infection, cells were fixed in cold 70% ethanol and stained with PI. Cell cycle profiles were determined by flow cytometry and analyzed by flowjo.

[11] = transient transfection, Dicer-Pten DKO cell lines

## COCCn1c2c([n+](Cc3cnccn3)c1C)C(=O)c1ccccc1C2=O [YM155, sepantronium bromide]
[1]
  inhibition of cancer cell viability: ~50%
OVCAR8 cells [2]
  Fold Change YM155 (30 nM)/DMSO (QPCR): ATF3: 11.1
  Fold Change YM155 (30 nM)/DMSO (QPCR): BIRC5 (Survivin): −1.1
  Fold Change YM155 (30 nM)/DMSO (QPCR): DDIT3: 3.6
  Fold Change YM155 (30 nM)/DMSO (QPCR): DDIT4: 10.6
  Fold Change YM155 (30 nM)/DMSO (QPCR): HERPUD1: 3.1
  Fold Change YM155 (30 nM)/DMSO (QPCR): HSPA1A: −7.5
  Fold Change YM155 (30 nM)/DMSO (QPCR): HSPA1B: −4.4
  Fold Change YM155 (30 nM)/DMSO (QPCR): TRIB3: 2.0
OVCAR8 cells [3]
  Fold Change YM155 (10 nM)/DMSO (Array): ATF3: 2.2
  Fold Change YM155 (10 nM)/DMSO (Array): BIRC5 (Survivin): −1.3
  Fold Change YM155 (10 nM)/DMSO (Array): DDIT3: 3.8
  Fold Change YM155 (10 nM)/DMSO (Array): DDIT4: 5.6
  Fold Change YM155 (10 nM)/DMSO (Array): HERPUD1: 2.2
  Fold Change YM155 (10 nM)/DMSO (Array): HSPA1A: −2.6
  Fold Change YM155 (10 nM)/DMSO (Array): HSPA1B: −2.6
  Fold Change YM155 (10 nM)/DMSO (Array): TRIB3: 2.6
OVCAR8 cells [4]
  viability at 0.003 µM: 64.3%
OVCAR8 cells [5]
  GI50: 4.6 nM

## CO[C@H]1C[C@@H]2CC[C@@H](C)[C@@](O)(O2)C(=O)C(=O)N2CCCC[C@H]2C(=O)O[C@H]([C@H](C)C[C@@H]2CC[C@@H](OCCO)[C@H](OC)C2)CC(=O)[C@H](C)/C=C(\C)[C@@H](O)[C@@H](OC)C(=O)[C@H](C)C[C@H](C)/C=C/C=C/C=C/1C [everolimus, reference compound]
[6]
  sensitivity of the tumors (cell viability): micromolar levels
[7]
  sensitivity of cells (anti-proliferative, secondary to G1 arrest, and pro-apoptotic effects): exquisitely sensitive

## miR-34c mimic: mimic of miR-34c, mature sequence AGGCAGUGUAGUUAGCUGAUUGC (SEQ ID NO:2); also delivered by lentivirus (listed as RNA, chemistry not given here)
[8]
  CDK2 relative quantity: down regulating
  CDKN1C relative quantity: up regulating
  cyclinE (CCNE2) relative quantity: down regulating
[9]; by the miR-34c mimic
  suppression of TOP2A: 11.7 fold
[9]; gene CCNE2, predicted miR-34c binding site
  Fold Change miR-34c mimic: CCNE2: −4.6
[9]; gene CDC6, predicted miR-34c binding site
  Fold Change miR-34c mimic: CDC6: −5.5
[9]; gene CDCA8, predicted miR-34c binding site
  Fold Change miR-34c mimic: CDCA8: −9.6
[9]; gene CDK2
  Fold Change miR-34c mimic: CDK2: −3.4
[9]; gene CDT1
  Fold Change miR-34c mimic: CDT1: −6.3
[9]; gene INCENP
  Fold Change miR-34c mimic: INCENP: −4.5
[9]; gene MCM5, predicted miR-34c binding site
  Fold Change miR-34c mimic: MCM5: −18.7
[9]; gene MDM2
  Fold Change miR-34c mimic: MDM2: 1.0
[9]; gene MRVI1
  Fold Change miR-34c mimic: MRVI1: 10.2
[9]; gene PBK
  Fold Change miR-34c mimic: PBK: −5.7
[9]; gene Survivin
  Fold Change miR-34c mimic: Survivin: −4.8
[9]; gene TOP2A
  Fold Change miR-34c mimic: TOP2A: −11.7
[9]; miR-34c mimic
  upregulation of MRVI1: 10.2 fold
[9]; upon delivery of miR-34c
  downregulation of direct targets MCM5, CDC6, CCNE2 and CDCA8: 4.6-18.7 fold
[7]
  sensitivity of cells (anti-proliferative, secondary to G1 arrest, and pro-apoptotic effects): exquisitely sensitive
  cell viability and proliferation after miR-34c mimic delivery: dramatic effect
[7]; Dicer/Pten serous ovarian cancer model
  suppression of mouse and human ovarian cancer cell viability among miRNAs tested: the only miRNA to suppress
[7]; listed as miR-34c
  cell viability and proliferation after miR-34c mimic delivery: reduced cell viability
[7]; [11]
  apoptosis: induction of apoptosis
  cell growth: growth inhibitory effect
[10]
  cell cycle profile: cell cycle arrest in G1 phase
OVCAR8; five days after lentivirus infection, OVCAR8
  cell cycle profile: arresting cancer cells in G1 phase
OVCAR8; lentiviral expression of miR-34c in OVCAR8
  cell proliferation: inhibits cell proliferation
